The text below walks through data of ChEMBL document CHEMBL5352473, “Design, synthesis, biological evaluation and crystal structure determination of dual modulators of carbonic anhydrases and estrogen receptors” (Eur J Med Chem, 2023).

A word on the Ki: it is the dissociation constant of the complex between target and ligand, obtained from inhibition or displacement.

One assay has as its target Carbonic anhydrase 1 (Homo sapiens, UniProt P00915). The assay is described as follows: Binding affinity to human CA1 assessed as inhibition constant incubated for 6 hrs by phenol red dye based stopped flow CO2 hydration assay.
The next assay addresses Carbonic anhydrase 2 (Homo sapiens, UniProt P00918). The experiment in a line: Binding affinity to human CA2 assessed as inhibition constant incubated for 6 hrs by phenol red dye based stopped flow CO2 hydration assay.
In another assay the target is Carbonic anhydrase 9 (Homo sapiens, UniProt Q16790).
The target of a further assay is Carbonic anhydrase 12 (Homo sapiens, UniProt O43570). The assay is described as follows: Binding affinity to human CA12 assessed as inhibition constant incubated for 6 hrs by phenol red dye based stopped flow CO2 hydration assay.
Assay [1] addresses Estrogen receptor beta (Homo sapiens) (UniProt Q92731). The experiment in a line: Partial agonist activity at wild type human ERbeta in HEK-293T cells transfected with 3xERE-driven luciferase reporter plasmid by luciferase reporter gene assay. The assay is classed as cell-based. (In general: In a reporter assay the amount or activity of a reporter protein is the signal.)

Active and inactive are the calls of the source. The rule behind the calls is not given here.

Estrogen receptor beta (Homo sapiens), sequence (Q92731 whole entry): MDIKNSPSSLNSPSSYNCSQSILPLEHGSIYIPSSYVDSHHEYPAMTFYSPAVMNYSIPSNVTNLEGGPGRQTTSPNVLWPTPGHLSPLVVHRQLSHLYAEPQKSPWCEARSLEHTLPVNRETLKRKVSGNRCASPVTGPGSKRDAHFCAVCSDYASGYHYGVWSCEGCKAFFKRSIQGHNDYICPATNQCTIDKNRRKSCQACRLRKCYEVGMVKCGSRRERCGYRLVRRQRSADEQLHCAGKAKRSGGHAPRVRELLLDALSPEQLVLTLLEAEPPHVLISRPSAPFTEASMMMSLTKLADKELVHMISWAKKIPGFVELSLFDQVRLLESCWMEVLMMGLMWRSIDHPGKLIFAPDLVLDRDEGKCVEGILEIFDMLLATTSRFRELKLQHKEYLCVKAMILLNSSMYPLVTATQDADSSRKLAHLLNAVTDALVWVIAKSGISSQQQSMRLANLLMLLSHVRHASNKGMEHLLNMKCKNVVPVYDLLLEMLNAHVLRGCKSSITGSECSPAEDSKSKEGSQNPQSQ
Carbonic anhydrase 1, sequence (P00915 whole entry): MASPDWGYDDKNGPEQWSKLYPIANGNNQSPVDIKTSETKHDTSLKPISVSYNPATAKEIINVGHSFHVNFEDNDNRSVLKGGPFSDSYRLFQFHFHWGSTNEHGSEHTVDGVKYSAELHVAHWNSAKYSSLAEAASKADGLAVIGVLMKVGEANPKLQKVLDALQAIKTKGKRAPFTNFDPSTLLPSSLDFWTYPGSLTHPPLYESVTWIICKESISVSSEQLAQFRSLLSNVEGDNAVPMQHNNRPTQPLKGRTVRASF
Carbonic anhydrase 12, sequence (O43570 whole entry): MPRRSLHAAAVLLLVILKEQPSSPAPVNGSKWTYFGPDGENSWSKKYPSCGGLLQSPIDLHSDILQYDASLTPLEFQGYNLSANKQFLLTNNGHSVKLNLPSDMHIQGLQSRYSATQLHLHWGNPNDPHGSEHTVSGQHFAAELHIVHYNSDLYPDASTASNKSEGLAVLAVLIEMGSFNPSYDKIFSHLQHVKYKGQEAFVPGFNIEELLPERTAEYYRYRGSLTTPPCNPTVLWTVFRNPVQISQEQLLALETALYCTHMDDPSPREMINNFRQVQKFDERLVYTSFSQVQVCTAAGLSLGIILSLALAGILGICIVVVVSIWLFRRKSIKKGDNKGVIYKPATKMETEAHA
Description for Carbonic anhydrase 9: Binding affinity to human CA9 assessed as inhibition constant incubated for 6 hrs by phenol red dye based stopped flow CO2 hydration assay

In the case of `NS(=O)(=O)c1ccc2c(c1)C1C=CCC1C(c1ccccc1Cl)N2` (racemic), the Ki on Carbonic anhydrase 1 worked out at 73.6 nM; on Carbonic anhydrase 2 it was 2.2 nM; on Carbonic anhydrase 9, 2090 nM; at Carbonic anhydrase 12 it was 256 nM. The result in assay [1] was inactive.
